Experimental data from ChEMBL document CHEMBL1201862, “PubChem BioAssay data set” (2004).
Calls of active or inactive are those of the source.

Tests used:
[1] = target: T1, Estrogen receptor (Homo sapiens, UniProt P03372);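 also: potency for inhibiting coactivator peptide recruitment to the receptor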
T1 sequence (P03372 whole entry): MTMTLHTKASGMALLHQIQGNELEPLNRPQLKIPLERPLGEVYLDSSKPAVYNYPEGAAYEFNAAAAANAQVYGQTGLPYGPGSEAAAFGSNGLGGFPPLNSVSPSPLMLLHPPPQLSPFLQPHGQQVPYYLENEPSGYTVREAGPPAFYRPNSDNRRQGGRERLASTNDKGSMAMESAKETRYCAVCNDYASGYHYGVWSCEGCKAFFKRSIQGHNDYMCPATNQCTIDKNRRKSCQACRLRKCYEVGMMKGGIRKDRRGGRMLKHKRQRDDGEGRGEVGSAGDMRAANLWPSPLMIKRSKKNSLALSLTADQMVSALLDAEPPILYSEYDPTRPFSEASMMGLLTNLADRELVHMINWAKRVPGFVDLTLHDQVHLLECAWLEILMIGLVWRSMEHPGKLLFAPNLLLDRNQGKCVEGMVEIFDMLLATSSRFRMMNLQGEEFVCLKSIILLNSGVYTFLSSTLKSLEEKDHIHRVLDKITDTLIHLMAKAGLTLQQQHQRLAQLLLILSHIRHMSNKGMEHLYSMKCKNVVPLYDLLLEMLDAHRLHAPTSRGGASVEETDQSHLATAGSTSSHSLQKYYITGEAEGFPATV

[2] = target: T2, Endoribonuclease toxin MazF (Escherichia coli K-12, UniProt P0AE70); assay: MazF toxin RNase activators, dose response, biochemical, fluorescence, single-stranded RNA substrate, uHTS hits (AID 588481); format: functional
T2 sequence (P0AE70 whole entry): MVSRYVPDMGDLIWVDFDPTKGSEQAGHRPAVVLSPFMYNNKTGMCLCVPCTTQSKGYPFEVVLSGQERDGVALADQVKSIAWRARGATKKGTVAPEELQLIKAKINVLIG

[3] = target: T2, Endoribonuclease toxin MazF; assay: fluorescent RNA oligo signal without MazF, dose response, counter-screen for MazEF activator project, biochemical, fluorescence, single-stranded RNase substrate (AID 588502); format: functional
[4] = non-specific cell cytotoxicity, dose response, cytotoxicity control for PAX8 inhibitor project, plate reader, dry powder samples (AID 743021); format: functional, cell-based
[5] = growth suppression of beta-catenin-knockout colon cells, dose response, cell-based, HCT116, human colon tumor (AID 1045); format: functional;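 also: HCT116 colon tumor cells with beta catenin knocked out; cells exposed to compound for 60 hours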
[6] = target: T3, Sentrin-specific protease 8 (Homo sapiens, UniProt Q96LD8); format: functional
T3 sequence (Q96LD8 whole entry): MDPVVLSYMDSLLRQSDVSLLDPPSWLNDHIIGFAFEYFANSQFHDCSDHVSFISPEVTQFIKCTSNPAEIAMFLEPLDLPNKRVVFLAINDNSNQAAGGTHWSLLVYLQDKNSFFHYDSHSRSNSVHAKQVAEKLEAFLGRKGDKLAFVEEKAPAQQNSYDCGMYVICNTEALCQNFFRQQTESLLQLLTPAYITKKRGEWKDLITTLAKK

[7] = cytotoxicity toward NIH3T3 fibroblasts, dose response, counter-screen, cell-based, ATP luminescence, mouse fibroblasts (AID 2010); format: functional;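 also: cells exposed to compound for about 90 hours before reading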
[8] = inhibitors of intracellular T. cruzi replication, confirmation, NIH3T3 host cells, beta-gal luminescence (AID 2044); format: functional, cell-based;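 also: intracellular parasites grown in NIH/3T3 mouse fibroblasts as host cells; luminescent beta-galactosidase reporter signal from transgenic T. cruzi replicating inside host cells; inhibitors lower the luminescence signal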
[9] = growth suppression of PTEN-null colon cells, dose response, cell-based, HCT116 PTEN knockout (AID 1047); format: functional;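 also: HCT116 colon tumor cells with PTEN knocked out; cells exposed to compound for 60 hours before readout; potency for loss of cell viability measured by luminescence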
[10] = target: T3, Sentrin-specific protease 8; format: functional; remark: listed apart in the source
[11] = target: Paired box protein Pax-8 (Homo sapiens, UniProt Q06710); assay: inhibitors of PAX8-driven TPO luciferase reporter, dose response, RMG-I cells, cherry-pick (AID 687027); format: functional, cell-based;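 also: luciferase reporter driven by Pax8 target thyroperoxidase promoter measured by SteadyGlo luminescence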
Chain of Paired box protein Pax-8 (Q06710 whole entry, the tested form may be a part): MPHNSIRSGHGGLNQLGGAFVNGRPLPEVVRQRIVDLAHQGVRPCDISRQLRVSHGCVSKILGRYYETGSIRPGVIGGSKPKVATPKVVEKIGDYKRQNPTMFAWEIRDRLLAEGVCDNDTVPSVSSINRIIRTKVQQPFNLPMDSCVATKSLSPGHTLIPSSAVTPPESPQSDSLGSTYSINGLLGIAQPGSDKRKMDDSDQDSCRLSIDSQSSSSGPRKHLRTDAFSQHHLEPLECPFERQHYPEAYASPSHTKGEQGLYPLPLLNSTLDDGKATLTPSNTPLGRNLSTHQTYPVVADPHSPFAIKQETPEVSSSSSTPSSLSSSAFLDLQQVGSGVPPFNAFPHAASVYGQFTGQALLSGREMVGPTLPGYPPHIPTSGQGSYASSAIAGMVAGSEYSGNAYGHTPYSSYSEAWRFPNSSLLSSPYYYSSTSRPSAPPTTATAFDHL

[12] = off-target signal loss in HeLa-CEM21 co-culture – HeLa F-luc CTL cells, cherry-picked, counter-screen for HIV-1 Env fusion inhibitor project, dose response (AID 652040); format: functional, cell-based;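 also: potency for signal decrease marking cytotoxic or nonspecific inhibition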
[13] = target: T4, Heat shock factor protein 1 (Mus musculus, UniProt P38532); assay: inhibition of MG132-induced HSE-luciferase signal, confirmation, cell-based, NIH3T3, luminescence, dose retest (AID 2382); format: functional;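 also: NIH3T3 fibroblasts with HSF1-driven luciferase reporter stressed by proteasome inhibitor MG132; luminescence from HSF1-driven luciferase expression after 8 hours of MG132 stress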
T4 sequence (P38532 whole entry): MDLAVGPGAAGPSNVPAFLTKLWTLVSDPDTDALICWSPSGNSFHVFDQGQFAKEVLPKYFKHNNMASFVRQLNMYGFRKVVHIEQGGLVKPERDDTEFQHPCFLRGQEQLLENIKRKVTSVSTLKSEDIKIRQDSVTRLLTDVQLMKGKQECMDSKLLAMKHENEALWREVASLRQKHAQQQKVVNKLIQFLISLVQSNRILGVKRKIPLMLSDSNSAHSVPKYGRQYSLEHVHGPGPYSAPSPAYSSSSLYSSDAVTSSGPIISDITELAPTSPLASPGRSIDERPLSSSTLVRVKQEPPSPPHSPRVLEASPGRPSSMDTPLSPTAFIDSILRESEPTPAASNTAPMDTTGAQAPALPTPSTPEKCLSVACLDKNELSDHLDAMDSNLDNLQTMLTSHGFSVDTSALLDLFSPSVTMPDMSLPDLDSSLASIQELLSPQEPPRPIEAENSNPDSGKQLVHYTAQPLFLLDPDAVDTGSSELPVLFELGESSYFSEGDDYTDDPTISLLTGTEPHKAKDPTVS

[14] = inhibitors of HIV Env-driven cell fusion, dose response, cherry-pick (AID 652057); format: functional, cell-based
[15] = Luminescence-based counterscreen assay for KLF5 inhibitors: dose response cell-based high throughput screening assay to identify cytotoxic compounds using the IEC-6 intestinal epithelial cell line. [Related pubchem assays: 1700 (Primary screen.), 1834 (Confirmation screen.), 1858 (Summary AID.), 1905 (Counterscreen.)]; format: functional
[16] = inhibitors of clade B AD8 Env fusion, dose response, cell-based, cherry-pick (AID 652062); format: functional;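 also: luciferase signal from cell-cell fusion driven by HIV-1 clade B AD8 Env; potency is for inhibitors of fusion seen as a drop in luminescence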
[17] = ZM109 Env clade C HIV-1 fusion inhibitors, dose response, HeLa effector, CEM target cells, luciferase, cherry-pick (AID 652058); format: functional, cell-based
[18] = target: ADP-ribosylation factor GTPase-activating protein 1 (Rattus norvegicus, UniProt Q62848); assay: Fluorescence polarization-based biochemical high throughput dose response screening assay to identify inhibitors of ADP-ribosylation factor GTPase activating protein 1 (ARFGAP1).; format: functional
Chain of ADP-ribosylation factor GTPase-activating protein 1 (Q62848 whole entry, the tested form may be a part): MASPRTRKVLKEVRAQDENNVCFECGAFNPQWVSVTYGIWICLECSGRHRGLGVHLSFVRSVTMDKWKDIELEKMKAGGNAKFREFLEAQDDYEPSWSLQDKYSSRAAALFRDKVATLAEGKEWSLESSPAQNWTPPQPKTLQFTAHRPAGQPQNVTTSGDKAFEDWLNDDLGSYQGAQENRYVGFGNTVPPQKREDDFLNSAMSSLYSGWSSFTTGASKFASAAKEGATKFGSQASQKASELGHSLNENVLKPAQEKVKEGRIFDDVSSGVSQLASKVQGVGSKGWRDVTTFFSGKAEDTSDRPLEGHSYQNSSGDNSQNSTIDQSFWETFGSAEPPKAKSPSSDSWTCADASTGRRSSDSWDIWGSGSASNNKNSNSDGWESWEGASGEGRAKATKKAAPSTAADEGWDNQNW

[19] = Fluorescence-based cell-based high throughput dose response assay for inhibitors of the interaction of nucleotide-binding oligomerization domain containing 2 (NOD2) and the receptor-interacting serine-threonine kinase 2 (RIPK2).; format: functional; details: Homo sapiens
[20] = target: T5, Protein RecA (Mycobacterium tuberculosis, UniProt P9WHJ3); assay: Fluorescence Cell-Free Homogeneous Dose Retest to Identify Inhibitors of RecA-Intein Splicing Activity. [Related pubchem assays (depositor defined):AID2097, AID2223, AID489010, AID492950]; format: functional
T5 sequence (P9WHJ3 whole entry): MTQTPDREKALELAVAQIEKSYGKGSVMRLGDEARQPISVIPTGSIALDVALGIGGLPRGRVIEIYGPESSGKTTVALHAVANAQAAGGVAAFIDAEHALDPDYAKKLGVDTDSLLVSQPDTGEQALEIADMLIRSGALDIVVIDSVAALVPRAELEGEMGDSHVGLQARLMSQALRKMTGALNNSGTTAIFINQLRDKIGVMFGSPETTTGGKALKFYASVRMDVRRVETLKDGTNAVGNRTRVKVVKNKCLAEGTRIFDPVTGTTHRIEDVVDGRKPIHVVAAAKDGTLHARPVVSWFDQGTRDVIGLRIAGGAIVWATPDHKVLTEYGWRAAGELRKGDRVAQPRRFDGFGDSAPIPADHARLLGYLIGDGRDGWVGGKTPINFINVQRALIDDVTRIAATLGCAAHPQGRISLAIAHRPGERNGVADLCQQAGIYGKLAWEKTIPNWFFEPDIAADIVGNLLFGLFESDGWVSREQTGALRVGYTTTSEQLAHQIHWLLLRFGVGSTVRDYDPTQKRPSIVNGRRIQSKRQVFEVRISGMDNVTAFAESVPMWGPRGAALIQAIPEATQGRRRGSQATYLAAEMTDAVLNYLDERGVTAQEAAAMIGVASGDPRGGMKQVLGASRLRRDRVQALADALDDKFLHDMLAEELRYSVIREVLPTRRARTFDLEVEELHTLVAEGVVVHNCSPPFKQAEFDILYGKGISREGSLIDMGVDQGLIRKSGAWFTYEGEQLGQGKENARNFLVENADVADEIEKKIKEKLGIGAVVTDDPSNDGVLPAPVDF

[21] = target: T6, Replicative DNA helicase DnaB (Mycobacterium tuberculosis, UniProt P9WMR3); assay: DnaB intein splicing inhibitors, dose response, biochemical, cell-free fluorescence (AID 449749); format: functional
T6 sequence (P9WMR3 whole entry): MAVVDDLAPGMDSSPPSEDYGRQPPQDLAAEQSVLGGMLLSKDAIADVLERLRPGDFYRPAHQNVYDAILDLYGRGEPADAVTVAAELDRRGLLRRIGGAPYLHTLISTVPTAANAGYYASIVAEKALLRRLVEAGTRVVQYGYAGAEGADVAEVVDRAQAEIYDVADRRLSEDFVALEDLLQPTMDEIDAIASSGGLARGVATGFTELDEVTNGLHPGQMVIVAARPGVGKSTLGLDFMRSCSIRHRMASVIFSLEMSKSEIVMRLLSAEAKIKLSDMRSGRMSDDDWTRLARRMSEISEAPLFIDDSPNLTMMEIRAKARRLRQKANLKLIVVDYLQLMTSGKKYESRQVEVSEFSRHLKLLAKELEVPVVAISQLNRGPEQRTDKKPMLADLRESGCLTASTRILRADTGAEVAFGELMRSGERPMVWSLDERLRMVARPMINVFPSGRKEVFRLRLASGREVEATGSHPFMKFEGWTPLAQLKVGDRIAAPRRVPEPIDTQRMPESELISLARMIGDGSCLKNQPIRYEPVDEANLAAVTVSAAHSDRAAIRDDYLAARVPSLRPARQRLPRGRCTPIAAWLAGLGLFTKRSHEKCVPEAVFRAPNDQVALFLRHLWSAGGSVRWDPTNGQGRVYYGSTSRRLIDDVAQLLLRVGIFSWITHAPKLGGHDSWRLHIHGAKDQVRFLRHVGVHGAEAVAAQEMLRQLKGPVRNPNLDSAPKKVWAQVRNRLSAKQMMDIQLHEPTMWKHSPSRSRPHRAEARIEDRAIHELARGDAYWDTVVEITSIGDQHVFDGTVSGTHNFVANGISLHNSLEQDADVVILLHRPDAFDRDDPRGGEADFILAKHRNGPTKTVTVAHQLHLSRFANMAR

[22] = target: T7, Low molecular weight phosphotyrosine protein phosphatase (Homo sapiens, UniProt P24666); format: functional; details: read-out: IC50_Mean;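 also: Dose-response confirmation assay measuring inhibition of LMPTP enzyme activity by fluorescence intensity read-out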
T7 sequence (P24666 whole entry): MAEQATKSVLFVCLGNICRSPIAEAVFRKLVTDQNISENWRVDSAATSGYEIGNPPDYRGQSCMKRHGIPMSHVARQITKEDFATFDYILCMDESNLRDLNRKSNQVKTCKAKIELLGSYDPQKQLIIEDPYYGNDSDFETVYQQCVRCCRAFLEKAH

In the case of `O=C(COC(=O)CCOc1ccccc1)NCc1ccco1`, the IC50 [1] was 16.6 µM (active).
For `CCn1cc(C=C2C(=O)c3ccccc3C2=O)c2ccccc21`, the EC50 [2] was > 99 µM (inactive) and the EC50 [3] was 35.9 µM (inactive).
With `O=C(C[C@H]1C[C@@H]2c3cc(NC(=O)C4CCOCC4)ccc3O[C@@H]2[C@@H](CO)O1)NCc1ccc(Oc2ccccc2)cc1` the AC50 [4] was 65.1 µM (active).
In the case of `Cc1ccc(/C=N/c2ccc(N(C)C)cc2)o1`, the EC50 [5] was 58 µM (active), the IC50 [6] was > 100 µM (inactive) and the EC50 [7] was > 60 µM (not active). The EC50 [8] was 1.12 µM (active), the EC50 [9] was 42.3 µM (active) and the IC50 [10] was 18.1 µM (active).
With `CCOC(=O)CSc1nc2ccc(C)cc2cc1C#N` the EC50 [2] was 9.32 µM (active) and the EC50 [3] was > 99 µM (inactive).
In the case of `COc1cc(/C=N/O)ccc1OCc1ccc(C(=O)O)cc1`, the AC50 [11] was 5.79 µM (active), the AC50 [4] was 25.6 µM (active) and the AC50 [12] was 0.82 µM (active). The EC50 [13] was 1.78 µM (active), the AC50 [14] was 0.351 µM (active) and the IC50 [15] was > 39.8 µM (not active). For the same compound, the AC50 [16] was 1.49 µM (active) and the AC50 [17] was 6.61 µM (active).
With `Cc1ccc2nc(SCC(=O)N3CCCC3)nc(=O)n2c1` the IC50 [18] was 45.2 µM (inactive).
For `O=C1CSC(=S)N1N=Cc1c(O)ccc2ccccc12`, the EC50 [2] was > 99 µM (inactive) and the EC50 [3] was > 99 µM (inactive).
In the case of `N#Cc1c(NC(=O)C2CC(c3c(F)cccc3Cl)=NO2)sc2c1CCC2` (stereo not drawn), the IC50 [18] was 43.6 µM (inactive).
For `Cc1onc(-c2ccccc2Cl)c1C(=O)NCc1cccnc1`, the IC50 [1] was > 50 µM (not active).
For `Cc1cccc(C(=O)OCc2cc3ccccc3[nH]c2=O)c1`, the EC50 [2] was > 99 µM (inactive) and the EC50 [3] was > 99 µM (inactive).
For `O=S1(=O)NC2c3ccccc3CC2O1` (stereo not drawn), the IC50 [6] was 19.5 µM (active) and the IC50 [10] was 9.78 µM (active).
In the case of `O=C(Nc1ccc(F)cc1)c1nn(-c2ccccc2)c(=O)cc1Cl`, the IC50 [19] was 4.16 µM (active), the EC50 [20] was 8.71 µM (active) and the AC50 [21] was 11.9 µM (active).
With `CN(C)/C=C/C(=O)c1ccc(OCCN(C)c2ccccn2)cc1` the IC50 [22] was 29.9 µM (inactive).
For `O=C(CN1CCCN(Cc2ccc(F)cc2Cl)C1=O)NC1CCCCCCC1`, the AC50 [12] was > 70 µM (inactive), the AC50 [14] was 30.1 µM (active) and the AC50 [16] was 44.3 µM (active).
In the case of `COCCCn1c(=O)/c(=C\c2ccccc2OC(F)F)s/c1=C(/C#N)C(=O)NCCOC`, the EC50 [2] was > 99 µM (inactive) and the EC50 [3] was > 99 µM (inactive).
